According to patent US20240238195A1, “METHODS AND COMPOSITIONS FOR INHIBITING A NOXIOUS INSULT” (priority 2018, published 2024):
Entries after “also recorded” stand apart in the source; their conditions may differ.

Experiments:
HIF-1α [1] = assay: HIF-1α protein expression in ACHN cells (Western blot); assay type: cell-based, human; conditions: 50 μM ZnCl2, Western blot, at 4 hours following exposure, vs controls
Excerpt: (§1) Zn stimulated HIF1α in ACHN cells.

HIF-1α [2] = assay: HIF-1α protein expression in HK-2 cells (Western blot); assay type: cell-based, human; conditions: 50 μM ZnCl2, Western blot, at 4 hours following exposure, vs controls
Excerpt: (§2) Zn stimulated HIF1α in HK-2 cells.

HIF-3α [3] = assay: HIF-3α protein expression in HK-2 cells (Western blot); assay type: cell-based, human; conditions: 50 μM ZnCl2, Western blot
Excerpt: as §2

pAKT [4] = assay: Phosphorylation of AKT in HK-2 cells (Western blot); assay type: cell-based, human; conditions: ZnCl2 for 4 hours
Excerpt: as §2

HIF-2α [5] = assay: HIF-2α protein expression in ACHN cells (Western blot); assay type: cell-based, human; conditions: 50 μM ZnCl2, Western blot, 4 hours
Excerpt: as §1

[6] = Tolerability of intravenous ZnCl2 in sheep; assay type: in vivo; conditions: 0.1 to 2 mg/kg of body weight i.v. at 24 hours and 4 hours prior to surgery; preliminary results
Procedure: (§3) Following the 4 hour injection, day 0 blood samples were taken.

HIF-1α [7] = assay: HIF-1α protein expression in ZnCl2-perfused human kidney tissue (Western Blot)
Procedure: The blood supply to the excised tissue was provided by the renal artery into which the ZnCl2 solution was administered. In an initial study a 25% increase in HIF-1α expression in normal human kidney perfused with Zn compared to saline perfused tissue was observed.

pAKT [8] = assay: Phosphorylation of AKT in ACHN cells (Western blot); assay type: cell-based, human; conditions: ZnCl2 for 4 hours
Excerpt: as §1

[9] = test system: sheep left ventricle myocardium; assay: Myocardial ischaemia-reperfusion in sheep (Evan's blue / TTC staining); assay type: in vivo
HIF-3α [10] = assay: HIF-3α protein expression in ACHN cells (Western blot); assay type: cell-based, human; conditions: 50 μM ZnCl2, Western blot
Excerpt: as §1

sheep kidneys = assay: Renal ischaemia-reperfusion injury in sheep (unilateral nephrectomy, 60 min renal ischaemia); assay type: in vivo; conditions: for ischaemic burden (area under curve, serum creatinine and serum urea): 0.5 mg/kg dosed at 24 hours and 4 hours pre-ischaemia, compared to controls and single 24 hr or 4 hr dosing; for inhibition of ischaemia-reperfusion injury, as measured by serum creatinine and urea levels / adverse effects of ischaemia-reperfusion in sheep kidneys (trend towards higher serum creatinine and urea levels): compared to controls
Procedure: as §3
Controls (n=4) received a unilateral nephrectomy and were administered saline at 24 hours and 4 hours prior to surgery.
Another group of sheep (n=1) received the Flavonoid based antioxidant (3′,4′ dihydroxyflavonol) at 6.6 mg/kg of body weight 1 hours prior to surgery.
Sheep were anaesthetised prior to surgery with intravenous sodium thiopentone (15 mg/kg) for endotracheal intubation (cuffed tube size 10). Maintenance of anaesthesia was carried out by means of oxygen/air/isoflurane (1.5-2.0%). Fractional inspired oxygen was altered to maintain PaO2 at approximately 100 mmHg, and ventilation was controlled to maintain PaCO2 at approximately 40 mmHg.
Following general anaesthesia, the right kidney was removed. A flow probe (4 mm) was implanted into the left kidney and the renal hilum (arteries and veins) supplying blood to the kidney were clamped using a vascular clamp for 60 minutes. […] General anaesthesia was then reversed and the sheep were allowed to recover. Renal blood flow was measured, blood samples were taken daily from the sheep over a 1-week period and the level of urea and creatinine was determined. Blood samples were collected into lithium heparin tubes (Microtainer, Becton-Dickinson). Blood samples were centrifuged and aliquots stored at −20° C. till analysis for creatinine and urea by the Clinical Trials Department, Austin Pathology, Heidelberg, Australia. Creatinine and urea in the blood serum samples were measured on a fully automated Roche Cobas 8000 c702 analyser. The kinetic colorimetric assay for creatinine determination is based on the Jaffé method. The kinetic colorimetric assay for urea is based on hydrolyzation of Urea to ammonium catalysed by urease followed by reaction of ammonium with 2-oxoglutarate in the presence of glutamate dehydrogenase and the coenzyme NADH. The rate of decrease in the NADH concentration is directly proportional to the urea concentration in the specimen and is measured photometrically.
As 0.5 mg/kg had been established as an effective dose to inhibit renal ischemia-reperfusion injury, the dosing experiments above were repeated to investigate the effect of multiple dosing. Sheep were subjected to uninephrectomy and 60 min of renal ischaemia followed by reperfusion. Serum creatinine and serum urea levels were measured before Zn pre-treatment (baseline), before ischaemia (Day 0) and for 7 days after reperfusion. […] Data are expressed as mean±SEM values (n=4, except 24 hr only group, n=1).

HIF-2α [11] = assay: HIF-2α protein expression in HK-2 cells (Western blot); assay type: cell-based, human; conditions: 50 μM ZnCl2, Western blot, 4 hours
Excerpt: as §2

rats [12] = conditions: cited from earlier work
mice = conditions: cited from earlier work
rats [13] = conditions: 191 mg zinc/kg/day as zinc acetate in drinking water for 3 months; cited from earlier work
ferrets = conditions: 390 mg zinc/kg of body weight per day as zinc oxide in the diet for 3-13 days; cited from earlier work
humans = conditions: cited from earlier work
[14] = 0.1 mg/kg of body weight i.v. at 24 hours and 4 hours prior to 60 min ischaemia
[15] = 0.5 mg/kg of body weight i.v. at 24 hours and 4 hours prior to 60 min ischaemia

## [Cl-].[Cl-].[Zn+2] [ZnCl2, zinc chloride]
HIF-1α [1]
  HIF-1α protein expression: increase
HIF-1α [1]; listed as Zinc chloride
  HIF-1α protein expression: enhanced
HIF-1α [1]; listed as Zn
  HIF-1α protein expression: stimulated
HIF-1α [1]; listed as zinc
  HIF-1α protein expression: stimulates
HIF-1α [2]
  HIF-1α protein expression: increase
HIF-1α [2]; listed as Zinc chloride
  HIF-1α protein expression: enhanced
HIF-1α [2]; listed as Zn
  HIF-1α protein expression: stimulated
HIF-1α [2]; listed as zinc
  HIF-1α protein expression: stimulates
HIF-3α [3]
  HIF-3α protein expression: not
pAKT [4]
  phosphorylation of AKT: stimulated phosphorylation
HIF-2α [5]
  HIF-2α protein expression: increase
HIF-2α [5]; listed as zinc
  HIF-2α protein expression: stimulated
[6]
  tolerability / adverse effects: without any adverse effects
HIF-1α [7]; 50 μM ZnCl2 perfused via segmental renal artery, compared to saline perfused tissue, initial study
  increase in HIF-1α expression: 25%
HIF-1α [7]; zinc chloride preconditioning (50 μM perfusion), Western Blot
  HIF-1α protein expression in human kidney tissue: enhanced
pAKT [8]
  phosphorylation of AKT: stimulated phosphorylation
[9]; dual doses of 0.5 mg/kg ZnCl2 at 24 hours and 4 hours prior to 1 hour ischemia and 3 hour reperfusion
  infarct in the area of myocardium at risk: no histological signs of an infarct
[9]; dual doses of 0.5 mg/kg ZnCl2 at 24 hours and 4 hours prior to myocardial ischaemia, compared to untreated sheep, 0.5 mg/kg
  white (infarcted) areas after TTC staining of left ventricle rings: very little white staining; also recorded: Absence of white areas
HIF-3α [10]
  HIF-3α protein expression: not
Sheep kidneys; [14]
  serum creatinine levels when compared to controls: marked reduction
  serum urea levels when compared to controls: marked reduction
Sheep kidneys
  ischaemic burden (area under curve, serum creatinine and serum urea): significantly (p<0.05) reduced
Sheep kidneys; listed as zinc
  ischaemic burden (area under curve, serum creatinine and serum urea): reduced significantly
Sheep kidneys; [15]
  serum creatinine levels when compared to controls: marked reduction
  serum urea levels when compared to controls: marked reduction
Sheep kidneys; 0.5 mg/kg zinc, compared to control animals
  reduction of ischaemic burden (AUC values for serum creatinine and serum urea): ~70%
Sheep kidneys; 1.0 mg/kg of body weight
  inhibition of ischaemia-reperfusion injury, as measured by serum creatinine and urea levels: failed to inhibit
Sheep kidneys; 2.5 mg/kg of body weight
  inhibition of ischaemia-reperfusion injury, as measured by serum creatinine and urea levels: failed to inhibit
Sheep kidneys; 2.5 mg/kg of body weight, listed as ZnCl
  adverse effects of ischaemia-reperfusion in sheep kidneys (trend towards higher serum creatinine and urea levels): appeared to worsen
Sheep kidneys; 2.5 mg/kg of body weight, listed as zinc
  adverse effects of ischaemia-reperfusion in sheep kidneys (trend towards higher serum creatinine and urea levels): worsened renal function
Sheep kidneys; 10.0 mg/kg of body weight
  inhibition of ischaemia-reperfusion injury, as measured by serum creatinine and urea levels: failed to inhibit
Sheep kidneys; 10.0 mg/kg of body weight, listed as ZnCl
  adverse effects of ischaemia-reperfusion in sheep kidneys (trend towards higher serum creatinine and urea levels): appeared to worsen
Sheep kidneys; 10.0 mg/kg of body weight, listed as zinc
  adverse effects of ischaemia-reperfusion in sheep kidneys (trend towards higher serum creatinine and urea levels): worsened renal function
Sheep kidneys; greater than or equal to 1 mg/kg of body weight, intravascular
  renal function following ischaemia-reperfusion injury, as determined by serum creatinine and serum urea levels: did not improve renal function
Sheep kidneys; two doses of 0.5 mg/kg at 24 and 4 hr prior to ischaemia, compared to single dose at either 24 hr or 4 hr, p<0.05, 0.5 mg/kg
  creatinine rise over time: significantly (p<0.05) reduced
HIF-2α [11]
  HIF-2α protein expression: increase
HIF-2α [11]; listed as zinc
  HIF-2α protein expression: stimulated

## O=c1c(O)c(-c2ccc(O)c(O)c2)oc2ccccc12 [antioxidant, 3′,4′ dihydroxyflavonol, reference compound]
Sheep kidneys; antioxidant 6.6 mg/kg of body weight 1 hours prior to surgery (n=1)
  decrease of ischaemic burden (AUC values for serum creatinine and serum urea): 50%

## CC(=O)[O-].CC(=O)[O-].[Zn+2] [zinc acetate]
Rats [12]
  relative lethality (LD50 ranking): most lethal compound tested
mice
  relative lethality (LD50 ranking): most lethal compound
Rats [13]
  mortality: Mortality has also been observed

## [O]=[Zn] [zinc oxide]
ferrets
  lethality (ferrets dead of ferrets dosed): 3 of 3

## zinc gluconate
humans; about 2,000-4,000 mg/day of zinc gluconate
  toxic effects: anemia (consistent with zinc-induced copper deficiency), severe nephrosis, nausea, vomiting, dehydration, electrolyte imbalances, dizziness, lethargy and incoordination, epigastric pain and abdominal pain

## zinc sulfate
humans; oral ingestion of zinc sulfate in large amounts (≥30,000 mg)
  outcome of zinc overdose: can result in death
